Experiment in all cases: LC-MS/MS cellular uptake versus vector control
Holding throughout (assay type): cell-based

One experiment deals with T1, CaOPT1 (Candida albicans, UniProt Q5YBA3).
T1 construct: gene OPT1; TEF promoter plasmid, expressed in S. cerevisiae opt1-delta cells
T1 sequence (Q5YBA3 1-783): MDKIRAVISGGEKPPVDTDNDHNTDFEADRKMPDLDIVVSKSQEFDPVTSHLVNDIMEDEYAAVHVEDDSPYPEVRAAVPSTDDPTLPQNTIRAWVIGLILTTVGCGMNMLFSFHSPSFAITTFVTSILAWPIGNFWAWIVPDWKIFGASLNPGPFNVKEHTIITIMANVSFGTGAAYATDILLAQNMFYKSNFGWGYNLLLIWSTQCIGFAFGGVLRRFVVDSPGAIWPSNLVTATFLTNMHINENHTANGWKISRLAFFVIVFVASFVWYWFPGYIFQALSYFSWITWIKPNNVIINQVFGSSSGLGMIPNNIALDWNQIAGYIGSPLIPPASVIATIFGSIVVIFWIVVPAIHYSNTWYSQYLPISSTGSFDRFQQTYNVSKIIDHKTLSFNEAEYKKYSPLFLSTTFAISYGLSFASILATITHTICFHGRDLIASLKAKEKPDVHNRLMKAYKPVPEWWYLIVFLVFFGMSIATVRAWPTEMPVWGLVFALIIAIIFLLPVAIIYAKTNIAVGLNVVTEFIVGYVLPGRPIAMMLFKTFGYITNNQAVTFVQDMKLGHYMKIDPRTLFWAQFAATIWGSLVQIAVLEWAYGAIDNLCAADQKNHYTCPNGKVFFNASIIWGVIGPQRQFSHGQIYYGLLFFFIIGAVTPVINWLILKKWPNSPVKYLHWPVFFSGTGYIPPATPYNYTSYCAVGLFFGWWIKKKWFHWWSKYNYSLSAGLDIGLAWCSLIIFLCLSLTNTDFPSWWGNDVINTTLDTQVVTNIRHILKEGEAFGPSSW
The note with it: 100 uM folinic acid, opt1-delta cells, pH 5.5, 30 °C, 5 min.

Another experiment addresses T2, AfOPTH (Aspergillus fumigatus, UniProt Q4WAD5).
T2 construct: gene AFUA_7G00910; plasmid-expressed in S. cerevisiae opt1-delta cells (MET25 promoter; TEF)
T2 sequence (Q4WAD5 1-757): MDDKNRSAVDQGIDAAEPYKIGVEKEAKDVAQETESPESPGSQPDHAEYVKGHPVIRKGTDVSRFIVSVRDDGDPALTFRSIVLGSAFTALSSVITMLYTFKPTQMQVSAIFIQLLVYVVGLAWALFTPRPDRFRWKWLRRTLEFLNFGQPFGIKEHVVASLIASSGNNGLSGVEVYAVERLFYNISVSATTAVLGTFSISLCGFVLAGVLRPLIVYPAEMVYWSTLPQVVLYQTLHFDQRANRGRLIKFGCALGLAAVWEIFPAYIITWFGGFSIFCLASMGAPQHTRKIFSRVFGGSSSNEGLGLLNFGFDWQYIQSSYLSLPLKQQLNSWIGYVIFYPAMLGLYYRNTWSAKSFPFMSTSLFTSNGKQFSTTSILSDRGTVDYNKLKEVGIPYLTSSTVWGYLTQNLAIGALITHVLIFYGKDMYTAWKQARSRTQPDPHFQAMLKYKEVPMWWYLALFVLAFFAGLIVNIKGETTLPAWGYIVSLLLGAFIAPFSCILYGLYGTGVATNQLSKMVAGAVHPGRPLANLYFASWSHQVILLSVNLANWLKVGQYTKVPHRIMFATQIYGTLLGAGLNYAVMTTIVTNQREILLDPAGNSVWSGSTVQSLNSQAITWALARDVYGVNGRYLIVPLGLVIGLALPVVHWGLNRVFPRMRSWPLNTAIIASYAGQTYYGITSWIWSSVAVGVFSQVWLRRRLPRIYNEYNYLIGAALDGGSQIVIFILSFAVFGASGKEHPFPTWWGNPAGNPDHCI
The note with it: 100 uM folinic acid, opt1-delta cells, pH 5.5, 30 °C, 5 min.

In a further experiment the target is T3, Opt1p/Hgt1p (ScOPT1) (Saccharomyces cerevisiae, UniProt P40897).
T3 construct: gene OPT1; full-length plasma membrane transporter, TEF promoter plasmid, in S. cerevisiae opt1-delta cells
T3 sequence (P40897 1-799): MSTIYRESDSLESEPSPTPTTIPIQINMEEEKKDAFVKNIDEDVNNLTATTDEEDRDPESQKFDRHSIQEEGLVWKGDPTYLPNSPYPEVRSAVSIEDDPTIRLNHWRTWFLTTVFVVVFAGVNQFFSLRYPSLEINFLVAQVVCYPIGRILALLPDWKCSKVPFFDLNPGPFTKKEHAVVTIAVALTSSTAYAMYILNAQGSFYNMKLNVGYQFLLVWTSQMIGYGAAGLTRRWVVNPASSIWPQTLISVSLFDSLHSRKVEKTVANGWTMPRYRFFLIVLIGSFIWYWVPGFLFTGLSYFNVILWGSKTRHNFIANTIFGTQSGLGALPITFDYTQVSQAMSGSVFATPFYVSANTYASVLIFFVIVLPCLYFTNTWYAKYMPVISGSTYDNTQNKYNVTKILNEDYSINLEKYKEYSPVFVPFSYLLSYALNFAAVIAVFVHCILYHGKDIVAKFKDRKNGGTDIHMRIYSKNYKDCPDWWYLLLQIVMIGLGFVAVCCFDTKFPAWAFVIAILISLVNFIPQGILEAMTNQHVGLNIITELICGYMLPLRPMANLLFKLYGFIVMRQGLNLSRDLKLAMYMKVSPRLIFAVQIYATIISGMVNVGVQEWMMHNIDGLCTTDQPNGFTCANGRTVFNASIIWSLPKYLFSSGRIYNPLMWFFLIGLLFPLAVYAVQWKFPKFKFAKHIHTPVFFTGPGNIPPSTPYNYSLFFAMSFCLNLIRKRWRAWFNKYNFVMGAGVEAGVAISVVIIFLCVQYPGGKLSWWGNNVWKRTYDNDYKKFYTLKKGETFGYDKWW
The following applies: 100 uM folinic acid, opt1-delta cells, pH 5.5, 30 °C; time course.

Another experiment deals with T4, AtOPT2 (Arabidopsis thaliana, UniProt O04514).
T4 construct: gene OPT2; cDNA from Arabidopsis Biological Resource Center, TEF promoter plasmid, in S. cerevisiae opt1-delta cells
T4 sequence (O04514 1-734): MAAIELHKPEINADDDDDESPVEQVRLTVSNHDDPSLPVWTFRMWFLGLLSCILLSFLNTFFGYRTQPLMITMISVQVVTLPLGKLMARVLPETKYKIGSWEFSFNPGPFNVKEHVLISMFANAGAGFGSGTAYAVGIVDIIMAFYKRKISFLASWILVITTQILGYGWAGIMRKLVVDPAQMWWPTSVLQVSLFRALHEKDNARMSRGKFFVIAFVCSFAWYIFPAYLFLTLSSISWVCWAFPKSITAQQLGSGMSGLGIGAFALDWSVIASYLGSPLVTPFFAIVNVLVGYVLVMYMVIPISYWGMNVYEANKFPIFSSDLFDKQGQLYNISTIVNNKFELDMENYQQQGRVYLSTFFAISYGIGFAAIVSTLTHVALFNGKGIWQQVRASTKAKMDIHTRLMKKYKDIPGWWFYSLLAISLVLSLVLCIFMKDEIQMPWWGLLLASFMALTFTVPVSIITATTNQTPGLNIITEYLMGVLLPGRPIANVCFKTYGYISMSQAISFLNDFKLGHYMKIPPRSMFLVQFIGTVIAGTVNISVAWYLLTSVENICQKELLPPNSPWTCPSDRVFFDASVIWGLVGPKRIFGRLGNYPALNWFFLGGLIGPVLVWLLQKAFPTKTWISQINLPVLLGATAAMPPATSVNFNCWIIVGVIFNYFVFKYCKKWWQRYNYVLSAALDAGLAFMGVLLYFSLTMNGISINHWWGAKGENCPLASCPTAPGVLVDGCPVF
The note with it: 100 uM folinic acid, opt1-delta cells, pH 5.5, 30 °C, 5 min.

In a further experiment the target is T5, AtOPT4 (Arabidopsis thaliana, UniProt Q9FME8).
T5 construct: gene OPT4; cDNA from Arabidopsis Biological Resource Center, TEF promoter plasmid, in S. cerevisiae opt1-delta cells
T5 sequence (Q9FME8 2-729): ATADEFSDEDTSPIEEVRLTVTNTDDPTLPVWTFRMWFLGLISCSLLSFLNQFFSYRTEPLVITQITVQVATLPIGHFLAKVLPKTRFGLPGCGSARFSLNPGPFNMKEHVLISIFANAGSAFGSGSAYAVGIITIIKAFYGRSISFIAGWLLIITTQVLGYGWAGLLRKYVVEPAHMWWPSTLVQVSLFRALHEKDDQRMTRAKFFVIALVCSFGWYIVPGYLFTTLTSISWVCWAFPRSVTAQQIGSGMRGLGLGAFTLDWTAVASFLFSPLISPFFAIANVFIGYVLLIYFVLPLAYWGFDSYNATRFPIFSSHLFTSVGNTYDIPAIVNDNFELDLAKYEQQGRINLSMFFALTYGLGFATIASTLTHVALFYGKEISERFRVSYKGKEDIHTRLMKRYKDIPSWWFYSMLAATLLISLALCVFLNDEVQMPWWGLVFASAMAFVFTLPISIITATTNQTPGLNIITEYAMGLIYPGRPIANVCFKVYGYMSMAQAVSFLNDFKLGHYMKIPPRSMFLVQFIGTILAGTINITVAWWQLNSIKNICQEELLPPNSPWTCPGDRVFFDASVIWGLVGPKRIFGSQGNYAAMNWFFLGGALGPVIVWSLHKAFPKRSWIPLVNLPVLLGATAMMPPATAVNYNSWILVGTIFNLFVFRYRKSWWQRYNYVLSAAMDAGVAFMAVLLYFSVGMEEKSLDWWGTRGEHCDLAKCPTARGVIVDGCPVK
The note with it: 100 uM folinic acid, opt1-delta cells, pH 5.5, 30 °C, 5 min.

For another experiment, the target named is T6, AtOPT6 (Arabidopsis thaliana, UniProt Q9T095).
T6 construct: gene OPT6; cDNA from Arabidopsis Biological Resource Center, TEF promoter plasmid, in S. cerevisiae opt1-delta cells
T6 sequence (Q9T095 1-736): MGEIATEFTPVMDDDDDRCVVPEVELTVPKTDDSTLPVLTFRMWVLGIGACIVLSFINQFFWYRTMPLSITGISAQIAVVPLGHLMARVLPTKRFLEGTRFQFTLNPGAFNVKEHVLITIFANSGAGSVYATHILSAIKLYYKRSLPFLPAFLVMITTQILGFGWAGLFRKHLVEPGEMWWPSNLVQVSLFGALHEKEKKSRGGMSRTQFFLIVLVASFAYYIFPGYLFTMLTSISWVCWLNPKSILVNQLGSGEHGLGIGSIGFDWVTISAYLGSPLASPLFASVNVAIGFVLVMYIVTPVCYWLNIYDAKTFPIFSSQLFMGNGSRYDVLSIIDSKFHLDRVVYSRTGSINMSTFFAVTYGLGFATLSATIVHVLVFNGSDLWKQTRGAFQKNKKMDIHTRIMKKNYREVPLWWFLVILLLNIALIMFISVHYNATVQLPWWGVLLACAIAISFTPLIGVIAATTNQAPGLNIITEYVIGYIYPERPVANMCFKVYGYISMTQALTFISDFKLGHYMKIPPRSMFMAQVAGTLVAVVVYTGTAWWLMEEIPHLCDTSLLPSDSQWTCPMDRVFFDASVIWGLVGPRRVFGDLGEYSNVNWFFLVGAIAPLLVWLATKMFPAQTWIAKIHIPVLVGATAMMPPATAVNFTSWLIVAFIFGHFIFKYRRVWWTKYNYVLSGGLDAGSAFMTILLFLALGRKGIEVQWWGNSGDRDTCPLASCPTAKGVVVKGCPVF
The following applies: 100 uM folinic acid, opt1-delta cells, pH 5.5, 30 °C, 5 min.

Structures are written as SMILES.

1 compound from article PMC12687453, “Plasma membrane folate transport in fungi and plants is mediated by members of the oligopeptide transporter (OPT) family” (Biochemical Journal, 2025) can be followed below.

For `Nc1nc2c(c(=O)[nH]1)N(C=O)[C@@H](CNc1ccc(C(=O)N[C@@H](CCC(=O)O)C(=O)O)cc1)CN2` [folinic acid], the “LC-MS/MS cellular uptake versus vector control” value on CaOPT1 was “confirmed the ability of C. albicans CaOPT1 to transport folate by uptake assays”; on AfOPTH, “carried out uptake experiments with AfOPTH to confirm its ability to transport folates”; on Opt1p/Hgt1p (ScOPT1) it was “a rapid increase in intracellular folinic acid was observed in the cells bearing TEF-OPT1 plasmid”; on AtOPT2, “AtOPT2 and AtOPT4 and even AtOPT6 contribute to folate transport”; at AtOPT4, “AtOPT2 and AtOPT4 and even AtOPT6 contribute to folate transport”; on AtOPT6, “AtOPT2 and AtOPT4 and even AtOPT6 contribute to folate transport”.
